Experimental data from patent US20150197497A1, “SELECTIVE INHIBITORS OF HISTONE DEACETYLASE ISOFORM 6 AND METHODS THEREOF” (DANA-FARBER CANCER INSTITUTE, INC., priority 2011, published 2015).
pEC50, pIC50: −log10 of the molar value.

Tests used:
[1] = molecular target: T1, HDAC6 (Homo sapiens, UniProt Q9UBN7); experiment: In vitro HDAC enzyme inhibition assay, HDAC6; format: biochemical; details: recombinant full-length HDAC6, substrate MAZ1600 9 μM
T1 construct: Recombinant, full-length HDAC protein (BPS Biosciences) was incubated with fluorophore conjugated substrate; purchased BPS Biosciences
T1 sequence (Q9UBN7 1-1215): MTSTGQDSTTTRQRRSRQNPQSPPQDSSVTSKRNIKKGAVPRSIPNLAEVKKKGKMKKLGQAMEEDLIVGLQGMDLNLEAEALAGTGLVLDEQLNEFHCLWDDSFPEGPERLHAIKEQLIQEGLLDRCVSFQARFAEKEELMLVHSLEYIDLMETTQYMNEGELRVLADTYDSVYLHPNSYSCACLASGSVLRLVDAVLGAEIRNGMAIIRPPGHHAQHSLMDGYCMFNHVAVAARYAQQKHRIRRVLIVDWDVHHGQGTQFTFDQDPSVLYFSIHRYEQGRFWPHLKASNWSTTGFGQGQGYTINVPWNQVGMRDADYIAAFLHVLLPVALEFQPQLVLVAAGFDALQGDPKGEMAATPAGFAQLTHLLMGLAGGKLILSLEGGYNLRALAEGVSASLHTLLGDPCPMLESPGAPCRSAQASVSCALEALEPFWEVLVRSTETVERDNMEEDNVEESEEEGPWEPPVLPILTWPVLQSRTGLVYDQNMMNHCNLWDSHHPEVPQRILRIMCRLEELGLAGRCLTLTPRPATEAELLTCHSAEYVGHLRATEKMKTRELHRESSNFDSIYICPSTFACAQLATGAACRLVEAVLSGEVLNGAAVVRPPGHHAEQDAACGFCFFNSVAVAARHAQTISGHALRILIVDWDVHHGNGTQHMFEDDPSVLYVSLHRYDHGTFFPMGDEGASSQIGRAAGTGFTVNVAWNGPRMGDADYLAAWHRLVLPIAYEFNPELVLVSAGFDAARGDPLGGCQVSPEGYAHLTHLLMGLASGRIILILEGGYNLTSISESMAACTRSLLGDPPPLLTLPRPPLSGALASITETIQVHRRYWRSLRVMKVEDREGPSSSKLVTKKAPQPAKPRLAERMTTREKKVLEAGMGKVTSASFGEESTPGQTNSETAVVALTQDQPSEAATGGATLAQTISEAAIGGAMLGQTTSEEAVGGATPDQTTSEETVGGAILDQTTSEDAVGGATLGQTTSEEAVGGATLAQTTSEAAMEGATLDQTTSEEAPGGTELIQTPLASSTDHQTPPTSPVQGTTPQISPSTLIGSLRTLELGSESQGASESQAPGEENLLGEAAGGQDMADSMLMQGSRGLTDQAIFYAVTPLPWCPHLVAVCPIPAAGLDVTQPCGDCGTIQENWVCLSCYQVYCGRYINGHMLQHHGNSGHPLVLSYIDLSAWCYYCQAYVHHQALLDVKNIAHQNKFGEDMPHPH
Experimental: (§1) In vitro Histone Deacetylase enzyme assays were performed using Class I (isoforms: HDAC1, HDAC2, HDAC3 and HDAC8), class IIa (isoforms: HDAC4, HDAC5, HDAC7 and HDAC9) and class IIb (isoform HDAC6).
(§2) HDAC activities were determined in vitro with an optimized homogenous assay performed in a 384-well plate. Recombinant, full-length HDAC protein (BPS Biosciences) was incubated with fluorophore conjugated substrate, MAZ1600 and MAZ1675, at Km=[S]. […] Reactions were performed in assay buffer (50 mM HEPES, 100 mM KCl, 0.001% Tween-20, 0.05% BSA, 200 μM tris(2-carboxyethyl)phosphine (TCEP), pH 7.4) and followed for fluorogenic release of 7-amino-4-methylcoumarin from substrate upon deacetylase and trypsin enzymatic activity. Fluorescence measurements were obtained every five minutes using a multilabel plate reader and plate-stacker (Envision; Perkin-Elmer). Each plate was analyzed by plate repeat, and the first derivative within the linear range was imported into analytical software (Spotfire DecisionSite and GraphPad Prism). Replicate experimental data from incubations with inhibitor were normalized to controls.

[2] = molecular target: T2, HDAC8 (Homo sapiens, UniProt Q9BY41); experiment: In vitro HDAC enzyme inhibition assay, HDAC8; format: biochemical; details: for HDAC8/HDAC6 in vitro selectivity: ratio of IC50 for HDAC8 relative to that of HDAC6; for pIC50: recombinant full-length HDAC8, substrate MAZ1675 282 μM
T2 construct: Recombinant, full-length HDAC protein (BPS Biosciences) was incubated with fluorophore conjugated substrate; purchased BPS Biosciences
T2 sequence (Q9BY41 1-377): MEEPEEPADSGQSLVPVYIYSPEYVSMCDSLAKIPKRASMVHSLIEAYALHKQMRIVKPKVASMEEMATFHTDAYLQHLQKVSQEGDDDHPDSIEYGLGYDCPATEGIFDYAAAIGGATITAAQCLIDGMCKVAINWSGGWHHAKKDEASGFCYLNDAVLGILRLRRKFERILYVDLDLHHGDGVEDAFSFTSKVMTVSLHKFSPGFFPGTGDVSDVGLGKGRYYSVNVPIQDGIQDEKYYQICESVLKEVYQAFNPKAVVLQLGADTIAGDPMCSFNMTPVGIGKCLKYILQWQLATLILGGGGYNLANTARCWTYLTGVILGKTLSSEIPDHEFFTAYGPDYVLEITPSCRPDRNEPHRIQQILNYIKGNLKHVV
Experimental: as §1, §2

[3] = molecular target: T3, HDAC4 (Homo sapiens, UniProt P56524); experiment: In vitro HDAC enzyme inhibition assay, HDAC4; format: biochemical; details: for HDAC4/HDAC6 in vitro selectivity: ratio of IC50 for HDAC4 relative to that of HDAC6; for pIC50: recombinant full-length HDAC4, substrate MAZ1675 10 μM
T3 construct: Recombinant, full-length HDAC protein (BPS Biosciences) was incubated with fluorophore conjugated substrate; purchased BPS Biosciences
T3 sequence (P56524 whole entry): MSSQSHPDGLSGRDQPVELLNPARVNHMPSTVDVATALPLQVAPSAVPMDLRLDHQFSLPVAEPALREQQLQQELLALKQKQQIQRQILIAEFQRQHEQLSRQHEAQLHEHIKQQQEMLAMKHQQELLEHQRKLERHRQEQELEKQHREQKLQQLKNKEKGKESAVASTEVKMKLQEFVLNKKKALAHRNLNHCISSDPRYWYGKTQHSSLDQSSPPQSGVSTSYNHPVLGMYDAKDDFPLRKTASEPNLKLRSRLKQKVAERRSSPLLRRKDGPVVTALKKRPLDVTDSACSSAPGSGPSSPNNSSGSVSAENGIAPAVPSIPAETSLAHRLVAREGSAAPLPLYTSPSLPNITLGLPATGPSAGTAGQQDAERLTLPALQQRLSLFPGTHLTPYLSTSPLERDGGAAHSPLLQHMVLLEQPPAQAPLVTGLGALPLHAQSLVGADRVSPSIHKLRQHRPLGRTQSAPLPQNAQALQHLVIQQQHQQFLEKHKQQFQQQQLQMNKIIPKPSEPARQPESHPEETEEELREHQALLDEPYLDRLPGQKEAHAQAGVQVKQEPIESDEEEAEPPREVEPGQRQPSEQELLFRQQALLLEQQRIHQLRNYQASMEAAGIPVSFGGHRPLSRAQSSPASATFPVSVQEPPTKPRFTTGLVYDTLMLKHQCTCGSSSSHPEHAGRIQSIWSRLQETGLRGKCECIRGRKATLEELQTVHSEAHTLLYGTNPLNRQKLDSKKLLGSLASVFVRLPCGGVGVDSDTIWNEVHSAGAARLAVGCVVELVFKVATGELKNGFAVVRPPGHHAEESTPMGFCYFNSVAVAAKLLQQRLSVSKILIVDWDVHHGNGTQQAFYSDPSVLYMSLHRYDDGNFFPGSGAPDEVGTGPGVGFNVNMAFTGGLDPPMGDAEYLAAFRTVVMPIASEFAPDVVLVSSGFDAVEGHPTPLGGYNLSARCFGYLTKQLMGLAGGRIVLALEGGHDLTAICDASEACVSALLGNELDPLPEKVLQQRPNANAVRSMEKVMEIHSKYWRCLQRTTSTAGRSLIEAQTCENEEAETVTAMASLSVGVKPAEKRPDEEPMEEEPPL
Experimental: as §1, §2

[4] = molecular target: T4, HDAC5 (Homo sapiens, UniProt Q9UQL6); experiment: In vitro HDAC enzyme inhibition assay, HDAC5; format: biochemical; details: for HDAC5/HDAC6 in vitro selectivity: ratio of IC50 for HDAC5 relative to that of HDAC6; for pIC50: recombinant full-length HDAC5, substrate MAZ1675 40 μM
T4 construct: Recombinant, full-length HDAC protein (BPS Biosciences) was incubated with fluorophore conjugated substrate; purchased BPS Biosciences
T4 sequence (Q9UQL6 whole entry): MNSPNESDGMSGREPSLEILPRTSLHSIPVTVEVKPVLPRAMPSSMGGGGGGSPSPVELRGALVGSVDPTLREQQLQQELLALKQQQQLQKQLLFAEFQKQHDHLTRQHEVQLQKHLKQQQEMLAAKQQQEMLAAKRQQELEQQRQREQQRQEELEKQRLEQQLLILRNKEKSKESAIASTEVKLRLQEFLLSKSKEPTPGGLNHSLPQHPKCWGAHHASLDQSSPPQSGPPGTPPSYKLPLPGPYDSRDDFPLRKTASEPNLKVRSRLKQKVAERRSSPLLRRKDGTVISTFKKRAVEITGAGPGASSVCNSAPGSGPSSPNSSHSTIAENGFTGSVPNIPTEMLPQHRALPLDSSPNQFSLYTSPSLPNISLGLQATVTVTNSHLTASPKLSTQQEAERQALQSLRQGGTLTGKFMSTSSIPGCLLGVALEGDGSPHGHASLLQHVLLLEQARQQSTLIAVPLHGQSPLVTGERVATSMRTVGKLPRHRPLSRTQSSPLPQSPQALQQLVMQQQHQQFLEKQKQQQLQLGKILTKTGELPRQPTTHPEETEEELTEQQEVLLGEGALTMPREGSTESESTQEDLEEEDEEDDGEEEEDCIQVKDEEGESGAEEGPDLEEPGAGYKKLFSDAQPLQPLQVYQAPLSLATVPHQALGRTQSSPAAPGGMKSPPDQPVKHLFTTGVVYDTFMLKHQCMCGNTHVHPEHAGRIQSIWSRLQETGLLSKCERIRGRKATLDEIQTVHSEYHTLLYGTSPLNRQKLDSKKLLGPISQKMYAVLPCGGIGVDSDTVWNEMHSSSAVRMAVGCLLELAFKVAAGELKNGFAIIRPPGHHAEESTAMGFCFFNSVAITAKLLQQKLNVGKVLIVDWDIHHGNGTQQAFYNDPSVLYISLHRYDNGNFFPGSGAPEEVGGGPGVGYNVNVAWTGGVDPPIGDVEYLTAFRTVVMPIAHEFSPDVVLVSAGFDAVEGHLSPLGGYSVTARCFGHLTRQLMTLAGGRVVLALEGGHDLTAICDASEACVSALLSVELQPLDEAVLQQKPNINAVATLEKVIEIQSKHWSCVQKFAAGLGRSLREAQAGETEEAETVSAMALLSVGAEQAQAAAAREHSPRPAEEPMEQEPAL
Experimental: as §1, §2

[5] = test system: acetylated histones; experiment: High-content image analysis of induction of acetylated histones in A549 cells; details: for levels of acetylated histone, dose response (in words): A549 cells, FIG. 11; for pEC50: Homo sapiens, A549, 8 h, read-out: EC50 for half-maximal induction of acetylated histones (AcHistone)
Experimental: Cells were treated with each test HDACi compound with an automated pin transfer instrument (Janus, Perkin Elmer) and incubated for 8 hours. […] Fixation solution was aspirated and 90 μL of washing solution (0.1% Triton X-100 in PBS) was added prior to 10 minute incubation at 4° C. Washing solution was aspirated and cells were incubated at 4° C. for about 1 hour in blocking solution (0.1% Triton X-100+2% BSA in PBS). Washing solution was aspirated, and cells were incubated for about 1 hour at 4° C. in primary antibody for acetylated-tubulin (Sigma T7451) and acetylated-histone (Cell Signaling #9441L) at a 1:1000 dilution in blocking solution. Primary antibody solution was aspirated, and cells were washed three times in 90 μL of washing solution. […] Secondary antibody and nuclear staining solution was aspirated and cells were washed three times in 90 μL of washing solution. After the third wash, 50 μL of PBS was added to each well. Image acquisition was done on a high content imaging microscope (ImageXpress Micro, Molecular Devices), and image analysis (MetaXpress, Molecular Devices) was performed to obtain average acetylated-tubulin and acetylated-histone signal per cell based on treatment. Replicate experimental data from incubations with inhibitor were normalized to DMSO controls.

[6] = molecular target: T5, HDAC9 (Homo sapiens, UniProt Q9UKV0); experiment: In vitro HDAC enzyme inhibition assay, HDAC9; format: biochemical; details: for HDAC9/HDAC6 in vitro selectivity: ratio of IC50 for HDAC9 relative to that of HDAC6; for pIC50: recombinant full-length HDAC9, substrate MAZ1675 26 μM
T5 construct: Recombinant, full-length HDAC protein (BPS Biosciences) was incubated with fluorophore conjugated substrate; purchased BPS Biosciences
T5 sequence (Q9UKV0 whole entry): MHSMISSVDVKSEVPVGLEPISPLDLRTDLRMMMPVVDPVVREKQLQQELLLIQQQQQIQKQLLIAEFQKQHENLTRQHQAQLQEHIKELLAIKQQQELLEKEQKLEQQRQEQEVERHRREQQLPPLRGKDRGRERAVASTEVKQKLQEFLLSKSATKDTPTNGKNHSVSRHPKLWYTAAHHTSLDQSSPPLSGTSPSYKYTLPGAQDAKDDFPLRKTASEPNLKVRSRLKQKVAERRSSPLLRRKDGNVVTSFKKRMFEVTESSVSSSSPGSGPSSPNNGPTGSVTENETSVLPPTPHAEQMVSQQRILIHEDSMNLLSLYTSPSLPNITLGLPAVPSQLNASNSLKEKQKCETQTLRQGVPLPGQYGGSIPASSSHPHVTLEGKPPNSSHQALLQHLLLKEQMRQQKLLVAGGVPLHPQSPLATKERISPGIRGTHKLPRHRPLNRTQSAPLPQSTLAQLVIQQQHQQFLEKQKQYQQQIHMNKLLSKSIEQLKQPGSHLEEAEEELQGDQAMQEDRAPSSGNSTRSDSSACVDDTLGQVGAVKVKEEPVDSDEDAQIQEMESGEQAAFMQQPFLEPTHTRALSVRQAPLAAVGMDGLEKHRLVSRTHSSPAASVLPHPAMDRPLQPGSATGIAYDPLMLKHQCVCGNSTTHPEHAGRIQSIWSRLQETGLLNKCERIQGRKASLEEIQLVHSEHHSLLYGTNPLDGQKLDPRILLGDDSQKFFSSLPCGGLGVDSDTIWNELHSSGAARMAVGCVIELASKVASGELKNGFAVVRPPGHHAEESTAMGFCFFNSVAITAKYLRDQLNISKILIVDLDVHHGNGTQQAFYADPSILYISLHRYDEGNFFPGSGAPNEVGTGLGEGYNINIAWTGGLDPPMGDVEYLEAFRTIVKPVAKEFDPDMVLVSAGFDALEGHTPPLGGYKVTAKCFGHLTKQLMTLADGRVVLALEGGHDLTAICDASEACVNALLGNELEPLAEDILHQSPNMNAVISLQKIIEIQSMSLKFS
Experimental: as §1, §2

[7] = molecular target: T6, HDAC2 (Homo sapiens, UniProt Q92769); experiment: In vitro HDAC enzyme inhibition assay, HDAC2; format: biochemical; details: for HDAC2/HDAC6 in vitro selectivity: ratio of IC50 for HDAC2 relative to that of HDAC6; for pIC50: recombinant full-length HDAC2, substrate MAZ1600 22 μM
T6 construct: Recombinant, full-length HDAC protein (BPS Biosciences) was incubated with fluorophore conjugated substrate; purchased BPS Biosciences
T6 sequence (Q92769 whole entry): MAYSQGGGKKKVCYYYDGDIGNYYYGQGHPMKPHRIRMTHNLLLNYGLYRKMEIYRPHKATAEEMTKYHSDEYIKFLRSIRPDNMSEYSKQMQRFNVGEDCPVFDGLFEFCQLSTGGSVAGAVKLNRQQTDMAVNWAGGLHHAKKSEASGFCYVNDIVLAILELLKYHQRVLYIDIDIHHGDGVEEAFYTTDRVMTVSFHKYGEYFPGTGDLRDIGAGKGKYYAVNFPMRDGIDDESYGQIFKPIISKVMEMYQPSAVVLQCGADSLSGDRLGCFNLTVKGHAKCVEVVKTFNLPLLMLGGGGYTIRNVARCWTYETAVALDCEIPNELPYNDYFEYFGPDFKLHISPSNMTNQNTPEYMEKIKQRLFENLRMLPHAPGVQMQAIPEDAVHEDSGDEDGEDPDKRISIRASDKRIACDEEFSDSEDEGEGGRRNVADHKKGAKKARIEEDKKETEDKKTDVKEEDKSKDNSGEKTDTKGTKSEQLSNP
Experimental: as §1, §2

[8] = molecular target: T7, HDAC3 (Homo sapiens, UniProt O15379); experiment: In vitro HDAC enzyme inhibition assay, HDAC3; format: biochemical; details: for HDAC3/HDAC6 in vitro selectivity: ratio of IC50 for HDAC3 relative to that of HDAC6; for pIC50: recombinant full-length HDAC3, substrate MAZ1600 9 μM
T7 construct: Recombinant, full-length HDAC protein (BPS Biosciences) was incubated with fluorophore conjugated substrate; purchased BPS Biosciences
T7 sequence (O15379 whole entry): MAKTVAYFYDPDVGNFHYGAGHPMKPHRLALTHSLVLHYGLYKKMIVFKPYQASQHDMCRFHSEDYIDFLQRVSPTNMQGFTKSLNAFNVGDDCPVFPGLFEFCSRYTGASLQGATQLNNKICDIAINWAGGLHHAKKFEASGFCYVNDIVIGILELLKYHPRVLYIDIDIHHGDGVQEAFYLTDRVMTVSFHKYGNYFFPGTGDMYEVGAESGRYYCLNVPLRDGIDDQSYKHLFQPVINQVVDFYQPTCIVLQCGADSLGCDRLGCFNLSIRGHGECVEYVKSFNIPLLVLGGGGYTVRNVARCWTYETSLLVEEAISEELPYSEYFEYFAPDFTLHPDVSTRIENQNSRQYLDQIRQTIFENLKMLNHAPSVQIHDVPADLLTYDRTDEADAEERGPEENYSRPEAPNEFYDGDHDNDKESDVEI
T7 sequence (Q9Y618 395-489 partner limits assumed): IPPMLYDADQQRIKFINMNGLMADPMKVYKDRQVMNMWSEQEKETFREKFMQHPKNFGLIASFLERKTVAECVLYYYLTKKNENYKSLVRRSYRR
Experimental: as §1, §2

| SMILES | pIC50 [1] | HDAC8/HDAC6 in vitro selectivity [2] | pIC50 [2] | HDAC4/HDAC6 in vitro selectivity [3] | pIC50 [3] | HDAC5/HDAC6 in vitro selectivity [4] | pIC50 [4] | pEC50 [5] | HDAC9/HDAC6 in vitro selectivity [6] | pIC50 [6] | HDAC2/HDAC6 in vitro selectivity [7] | pIC50 [7] | HDAC3/HDAC6 in vitro selectivity [8] | pIC50 [8] | levels of acetylated histone, dose response (in words) [5] |
| --- | --- | --- | --- | --- | --- | --- | --- | --- | --- | --- | --- | --- | --- | --- | --- |
| O=C(NO)c1ccc(Cn2c(C(F)(F)F)nc3ccccc32)cc1 [A1, N-hydroxy-4-((2-(trifluoromethyl)-1H-benzo[d]imidazol-1-yl)methyl)benzamide] | 9.33 | 3764 | 5.75 | 2948 | 5.86 | 953 | 6.35 | 5.20 | 2167 | 5.99 | 1230 | 6.24 | 3791 | 5.75 | absence of the dose-dependent response |
| O=C(NO)c1ccc(Cn2cnc3ccccc32)cc1 [A7] | 10.01 | 6573 | 6.19 | 17962 | 5.76 | 9794 | 6.02 | 6.64 | 16631 | 5.79 | 1853 | 6.74 | 4791 | 6.33 | – |
| Cc1ccc2c(c1)ncn2Cc1ccc(C(=O)NO)cc1 [A8, N-hydroxy-4-((5-methyl-1H-benzo[d]imidazol-1-yl)methyl)benzamide] | 9.42 | 2847 | 5.96 | 7247 | 5.56 | 3687 | 5.85 | 7.10 | 5975 | 5.64 | 762 | 6.54 | 1596 | 6.22 | – |

Continued, in another order:

| pIC50 [1] | HDAC8/HDAC6 in vitro selectivity [2] | pIC50 [2] | HDAC4/HDAC6 in vitro selectivity [3] | pIC50 [3] | HDAC5/HDAC6 in vitro selectivity [4] | pIC50 [4] | pEC50 [5] | HDAC9/HDAC6 in vitro selectivity [6] | pIC50 [6] | HDAC2/HDAC6 in vitro selectivity [7] | pIC50 [7] | HDAC3/HDAC6 in vitro selectivity [8] | pIC50 [8] | SMILES | levels of acetylated histone, dose response (in words) [5] |
| --- | --- | --- | --- | --- | --- | --- | --- | --- | --- | --- | --- | --- | --- | --- | --- |
| 9.51 | 4364 | 5.87 | 2775 | 6.07 | 537 | 6.79 | 6.62 | 1942 | 6.23 | 553 | 6.77 | 3718 | 5.94 | Cc1ccc2c(c1)nc(C(F)(F)F)n2Cc1ccc(C(=O)NO)cc1 [A2, N-hydroxy-4-((5-methyl-2-(trifluoromethyl)-1H-benzo[d]imidazol-1-yl)methyl)benzamide] | – |
| 9.24 | 2540 | 5.84 | 1901 | 5.96 | 486 | 6.55 | 6.23 | 2127 | 5.91 | 844 | 6.31 | 3126 | 5.75 | O=C(NO)c1ccc(Cn2c(C(F)(F)F)nc3cc(F)ccc32)cc1 [A3, 4-((5-fluoro-2-(trifluoromethyl)-1H-benzo[d]imidazol-1-yl)methyl)-N-hydroxybenzamide] | – |
| 8.94 | 1240 | 5.84 | 1188 | 5.86 | 246 | 6.55 | 4.83 | 943 | 5.96 | 259 | 6.52 | 1096 | 5.90 | O=C(NO)c1ccc(Cn2c(C(F)(F)F)nc3cc(Cl)ccc32)cc1 [A4, 4-((5-chloro-2-(trifluoromethyl)-1H-benzo[d]imidazol-1-yl)methyl)-N-hydroxybenzamide] | absence of the dose-dependent response |
| 9.51 | 3501 | 5.96 | 2783 | 6.06 | 476 | 6.83 | 5.71 | 2420 | 6.13 | 471 | 6.84 | 2529 | 6.11 | O=C(NO)c1ccc(Cn2c(C(F)(F)F)nc3cc(Br)ccc32)cc1 [A5, 4-((5-bromo-2-(trifluoromethyl)-1H-benzo[d]imidazol-l-yl)methyl)-N-hydroxybenzamide] | – |
| 9.41 | 3927 | 5.81 | 2414 | 6.02 | 637 | 6.60 | 5.59 | 1871 | 6.14 | 522 | 6.69 | 2067 | 6.09 | COc1ccc2c(c1)nc(C(F)(F)F)n2Cc1ccc(C(=O)NO)cc1 [A6, N-hydroxy-4-((5-methoxy-2-(trifluoromethyl)-1H-benzo[d]imidazol-1-yl)methyl)benzamide] | – |
